# ChEMBL document CHEMBL3102829, “Resveratrol oligomers inhibit biofilm formation of Escherichia coli O157:H7 and Pseudomonas aeruginosa” (J Nat Prod, 2014)
# Activity calls are given as the source filed them. The calls are words filed in the database; no cut-off is given here.
# Experiments:
# Escherichia coli [1] = experiment: Antibiofilm activity against Escherichia coli O157:H7 after 24 hrs by spectrophotometry; type: functional, organism-based
# Escherichia coli [2] = experiment: Antibiofilm activity against Escherichia coli O157:H7 assessed as induction of qseB gene expression at 20 ug/ml after 5 hrs by qRT-PCR analysis; type: functional, organism-based
# Escherichia coli [3] = experiment: Antibiofilm activity against Escherichia coli O157:H7 assessed as induction of flhD gene expression at 20 ug/ml after 5 hrs by qRT-PCR analysis; type: functional, organism-based
# Escherichia coli [4] = experiment: Antibiofilm activity against Escherichia coli O157:H7 assessed as induction of motB gene expression at 20 ug/ml after 5 hrs by qRT-PCR analysis; type: functional, organism-based
# Escherichia coli [5] = experiment: Antibiofilm activity against Escherichia coli O157:H7 assessed as induction of fliA gene expression at 20 ug/ml after 5 hrs by qRT-PCR analysis; type: functional, organism-based
# Pseudomonas aeruginosa [6] = experiment: Antibiofilm activity against Pseudomonas aeruginosa PA14 after 24 hrs by spectrophotometry; type: functional, organism-based
# Escherichia coli [7] = experiment: Antibiofilm activity against Escherichia coli O157:H7 after 24 hrs by GFP-based confocal laser microscopy; type: functional, organism-based
# Pseudomonas aeruginosa [8] = experiment: Antibiofilm activity against Pseudomonas aeruginosa PA14 after 24 hrs by GFP-based confocal laser microscopy; type: functional, organism-based
# Escherichia coli [9] = experiment: Antibiofilm activity against Escherichia coli O157:H7 assessed as repression of csgD expression at 20 ug/ml after 5 hrs by qRT-PCR analysis; type: functional, organism-based
# Escherichia coli [10] = experiment: Antibiofilm activity against Escherichia coli O157:H7 assessed as repression of csgF expression at 20 ug/ml after 5 hrs by qRT-PCR analysis; type: functional, organism-based
# Escherichia coli [11] = experiment: Antibiofilm activity against Escherichia coli O157:H7 assessed as repression of csgC expression at 20 ug/ml after 5 hrs by qRT-PCR analysis; type: functional, organism-based
# Escherichia coli [12] = experiment: Antibiofilm activity against Escherichia coli O157:H7 assessed as repression of csgG expression at 20 ug/ml after 5 hrs by qRT-PCR analysis; type: functional, organism-based
# Escherichia coli [13] = experiment: Antibiofilm activity against Escherichia coli O157:H7 assessed as effect on rrsG expression at 20 ug/ml after 5 hrs by qRT-PCR analysis; type: functional, organism-based
# Escherichia coli [14] = experiment: Antibiofilm activity against Escherichia coli O157:H7 assessed as repression of csgB expression at 20 ug/ml after 5 hrs by qRT-PCR analysis; type: functional, organism-based
# Escherichia coli [15] = experiment: Antibiofilm activity against Escherichia coli O157:H7 assessed as repression of csgA expression at 20 ug/ml after 5 hrs by qRT-PCR analysis; type: functional, organism-based
# Escherichia coli [16] = experiment: Reduction in fimbriae production in Escherichia coli O157:H7 biofilm grown on nylon filter at 20 ug/ml after 24 hrs by scanning electron microscopy; type: functional, organism-based
# Escherichia coli [17] = experiment: Antimicrobial activity against Escherichia coli O157:H7 by spectrophotometry; type: organism-based; conditions: in vivo
# Escherichia coli [18] = experiment: Antimicrobial activity against Escherichia coli O157:H7 assessed as growth inhibition up to 50 ug/ml by spectrophotometry; type: organism-based; conditions: in vivo
# Escherichia coli [19] = experiment: Antibiofilm activity against Escherichia coli O157:H7 at 5 ug/ml after 24 hrs by spectrophotometry; type: functional; conditions: O157:H7, 24 h
# Pseudomonas aeruginosa [20] = experiment: Antibiofilm activity against Pseudomonas aeruginosa PA14 assessed as growth inhibition at 50 ug/ml by spectrophotometry; type: functional, organism-based
Compound,inhibition (Escherichia coli [1]),Activity (Escherichia coli [2]),Activity (Escherichia coli [3]),Activity (Escherichia coli [4]),Activity (Escherichia coli [5]),inhibition (Pseudomonas aeruginosa [6]),inhibition (Escherichia coli [7]),inhibition (Pseudomonas aeruginosa [8]),Activity (Escherichia coli [9]),Activity (Escherichia coli [10]),Activity (Escherichia coli [11]),Activity (Escherichia coli [12]),Activity (Escherichia coli [13]),Activity (Escherichia coli [14]),Activity (Escherichia coli [15]),Activity (Escherichia coli [16]),growth inhibition (GI) (Escherichia coli [17]),Activity (Escherichia coli [18]),inhibition at 5 µg/mL (Escherichia coli [19]),inhibition (Pseudomonas aeruginosa [20])
Oc1ccc([C@@H]2c3c(O)cc(O)cc3[C@@H]3c4c(cc(O)c5c4[C@@H]2[C@@H](c2ccc(O)cc2)[C@@H]5c2cc(O)cc(O)c2)O[C@@H]3c2ccc(O)cc2)cc1 (relative stereo),Dose-dependent effect,inactive,inactive,inactive,inactive,Dose-dependent effect,Dose-dependent effect,Active,–,–,–,–,–,–,–,–,–,–,–,–
Oc1ccc([C@H]2c3c(O)cc(O)cc3[C@@H]3c4c(cc(O)c5c4[C@@H]2[C@@H](c2ccc(O)cc2)[C@@H]5c2cc(O)cc(O)c2)O[C@@H]3c2ccc(O)cc2)cc1 (relative stereo),Dose-dependent effect,inactive,inactive,inactive,inactive,Dose-dependent effect,Dose-dependent effect,Active,Active,Active,Active,Active,inactive,Active,Active,–,–,–,–,–
Oc1ccc(/C=C/c2cc(O)cc3c2[C@@H](c2cc(O)cc(O)c2)[C@H](c2ccc(O)cc2)O3)cc1 [EPSILON-VINIFERIN],Dose-dependent effect,inactive,inactive,inactive,inactive,–,–,–,Active,Active,Active,Active,inactive,Active,Active,Active,Dose-dependent effect,–,–,–
Oc1ccc(/C=C/c2cc(O)cc(O)c2)cc1 [RESVERATROL],Dose-dependent effect,–,–,–,–,Active,–,Active,Active,Active,Active,Active,inactive,Active,Active,Active,Dose-dependent effect,–,–,–
Oc1ccc([C@H]2c3c(O)cc(O)cc3[C@H]3c4c(cc(O)cc4[C@@H]2c2cc(/C=C/c4cc(O)cc5c4[C@H](c4cc(O)cc(O)c4)[C@@H](c4ccc(O)cc4)O5)ccc2O)O[C@@H]3c2ccc(O)cc2)cc1 [VITISIN A],inactive,inactive,inactive,inactive,inactive,Dose-dependent effect,–,Active,–,–,–,–,–,–,–,–,–,Non-toxic,–,–
Oc1ccc([C@H]2Oc3cc(O)cc(/C=C/c4ccc5c(c4)[C@@H](c4cc(O)cc6c4[C@H](c4cc(O)cc(O)c4)[C@@H](c4ccc(O)cc4)O6)[C@H](c4ccc(O)cc4)O5)c3[C@@H]2c2cc(O)cc(O)c2)cc1 [VITISIN B],Dose-dependent effect,Active,Active,Active,Active,Dose-dependent effect,Dose-dependent effect,Active,Active,Active,Active,Active,inactive,Active,Active,Active,–,Non-toxic,> 90%,inactive
